Measurements: patent US7008940B1, “Dihydrobenzofuran derivatives, process for the preparing thereof and agents” (Takeda Pharmaceutical Company Limited, priority 1999, dated 2006)
Where a name gives a salt, the structure may show the parent alone.

Test system: lipid peroxidation in rat cerebral cortical homogeneates
Assay: Inhibitory effect on lipid peroxidation in rat cerebral cortical homogenates (thiobarbituric acid method)
Format: biochemical
Details: lipoperoxide production in Jcl. Wistar rat cerebral cortex homogenate supernatant, 37° C. for 30 minutes, absorbance at 532 nm, vs DMSO-added group
Protocol: Inhibitory effect on lipid peroxidation in rat cerebral cortical homogeneates and oral administration to mouse.
Quantitative determination of lipoperoxide produced in brain homogenate was performed according to the method of Stocks et al. (Clin. Sci. Mol. Med. 47–215(1974)). As animals, brains of Jcl. Wistar male rats, 10–13 weeks age, were used. Rat cerebral cortices were obtained after decapitation, homogenized in an ice-cooled phosphate saline buffer (50 mM Ph 7.4) (Nichion Microhomogenizer, S-310E), centrifuged at 10,000 g for 10 minutes (Hitachi CF15D type, RT15A6 Anglerotor), and the supernatant was used in a test. This supernatant was diluted 3-fold with the same buffer. To this 1 mL were added 10 μL of test drugs dissolved in dimethyl sulfoxide (DMSO) to the final concentration of 0.0125, 0.025, 0.05, 0.10, 0.20, 0.40, 0.80 and 1.60 μM, respectively, which was incubated at 37° C. for 30 minutes. The reaction was stopped by addition of 200 μL of 35% perchloric acid, and centrifuged at 13,000 g for 10 minutes. To 1 mL of this supernatant was added 0.5 mL of 2-thiobarbituric acid (500 mg/100 mL) dissolved in 50% acetic acid, heated to boil at 95° C. for 15 minutes, which was determined by the absorbance at 532 nm. […]

IC50 | SMILES
127 nM | Cc1c(C)c2c(c3c1NC(C)(C)C3)CC(C)(C)O2 [Example 3, 1,6,7,8-Tetrahydro-2,2,4,5,7,7-hexamethyl-2H-furo [3,2-e]indole oxalate]
57 nM | Cc1c(C)c2c(c3c1NC(C)(C)C3)CC(C)(CN1CCC(NC(c3ccccc3)c3ccccc3)CC1)O2 (centres unmarked) [Example 11, N-(Diphenylmethyl)-1-[(1,6,7,8-tetrahydro-2,4,5,7,7-pentamethyl-2H-furo[3,2-e]indol-2-yl)methyl]-4-piperidineamine dihydrochloride]
